Reference: patent publication US11286247B2, “Acryloyl-containing nuclear transport regulators and uses thereof” (WIGEN BIOMEDICINE TECHNOLOGY (SHANGHAI) CO., LTD., priority 2019, dated 2022)
In brackets after ≈: the same amount, converted by molar mass. Entries after “also recorded” stand apart in the source; their conditions may differ. Where two headings read alike, the source gives them in different places.

Legend:
Aqueous solubility assay = type: physicochemical; details: thermodynamic from solid, HPLC
Method: 10-30 mg of compounds were dissolved in water and an HCl solution at pH1.2 respectively, and then were continuously shook for three days, followed by centrifugation at 10000 rpm/minute for five minutes. A 2 mL aliquot of supernatant was removed and diluted to 50 mL to prepare a sample solution. A control solution was prepared by dissolving 2.5 mg compounds in methanol, which was subsequently diluted with water to a final volume of 50 mL. 20 μL of control and sample solutions were injected into HPLC. The area under the curve (A) of the sample solution was compared with that of the control solution and used for determination of the concentration. Solubility was calculated by the formula below. Solubility (mg/mL)=c(control)*25*A(sample)/A(control) • C (control): concentration of the control solution • A (sample): area under the curve of the sample solution • A (control): area under the curve of the control solution

[1] = In vivo pharmacokinetic analysis; details: ICR, mouse; mice, 5 mg/kg, oral gavage in 0.5% CMC, plasma
Method: A group of 9 ICR mice received 5 mg/kg of compound in 0.5% CMC by oral gavage. Blood was taken before treatment and at 5 min, 30 min, 1, 2, 4, 8, 12 and 24 h after treatment. 80 μL of whole blood was sampled (n=3 at each time point) via retro-orbital bleeds or cardiac puncture. The blood sample was collected into EDTA tubes and plasma were obtained by centrifugation at 1500-1600 rpm for 10 min at 4° C. After centrifugation, plasma sample was transferred to a new tube and stored at −60 to −90° C. for future analysis. Plasma concentration of (compounds was quantified by a method based on liquid chromatography coupled to tandem mass-spectrometric detections (LC/MS/MS). Noncompartmental pharmacokinetics parameters were calculated.

[2] = system: MDA-MB-231 cells (breast cancer cells); assay: Cancer cell proliferation assay, MDA-MB-231; type: cell-based; details: Homo sapiens, MDA-MB-231, 72 h; three days incubation, absorbance 570 nm; read-out: IC50 (μM) MDA-MB-231
Method: (§1) BxPC-3 cells (pancreatic cancer) and MDA-MB-231 cells (breast cancer cells) were harvested from exponential phase cultures and seeded in 96-well plates at a cell density of 2×10^4 per well. After overnight attachment, compounds including positive controls were applied to cells at five concentrations and incubated for three days. During the last four hours of incubation, 20 μL of 5 mg/mL […] was added followed by the further addition of 100 μL DMSO. The plates were subsequently shook for 10 minutes to dissolve insoluble purple formazan. Absorbance (A) at a wavelength of 570 nm was quantified. Percentage of inhibition was used for the calculation of IC50 based on the bliss method.

CRM1 = molecular target: T1, CRM1 (Homo sapiens, UniProt O14980); assay: Rev-GFP nuclear export assay; type: cell-based; details: U2OS cells expressing Rev-GFP, 1 hour incubation, nuclear retention of Rev-GFP
T1 construct: The nuclear localization of Rev protein depends on CRM1; endogenous in cells; host or cells: U2OS cells stably or transiently expressing Rev-GFP (reporter cargo)
Method: The Rev protein from HIV contains nuclear export sequence (NES) at its C terminus and nuclear localization sequence (NLS) at its N-terminus. The nuclear localization of Rev protein depends on CRM1. U2OS cells expressing Rev protein fused with GFP (Rev-GFP) were plated in black 384 plates with clear bottom one day prior to treatment. Compounds were serially diluted 2-fold from 40 μM with DMEM in 384 plates, and then incubated with U2OS cells for an hour. Cells were fixed with 3.7% formaldehyde afterwards and nuclei were stained with Hoechst33258. The nuclear retention of Rev-GFP was examined, and IC50 was calculated.

BxPC-3 xenografts = assay: Anti-tumor growth efficacy in pancreatic tumor BxPC3 nude mice xenograft model; type: in vivo; details: for Tumor volume D1 / average body weight D1: D1, first day of drug treatment; for Tumor volume D1 / average body weight D1 / TGI (tumor growth inhibition) / Tumor volume D21 / average body weight D21 / RTV (relative tumor volume, Vt/V0) / T/C: oral: KPT-330 and 38 10 mg/kg tiw, 79 2.5 mg/kg tiw, 62 10 mg/kg qd; for TGI (tumor growth inhibition) / Tumor volume D21 / average body weight D21 / RTV (relative tumor volume, Vt/V0): D21; for RTV (relative tumor volume, Vt/V0): *P < 0.05 vs. vehicle group; for anti-tumor growth activity in BxPC-3 xenograft model (in words): Example 79 2.5 mg/kg, Example 38 10 mg/kg, compared to 10 mg/kg KPT-330; for T/C: TRTV/CRTV X 100
Method: BxPC-3 cells were cultured in 1640 medium containing 10% FBS at 37° C. and 5% CO2, 8×10^6 BxPc-3 cells were implanted subcutaneously into the left armpit of 40 nude mice. […] Compound 62 was administered orally everyday (qd) at 10 mg/kg, whereas KPT330 and compound 38 were given three times a week (tiw, Monday, Wednesday and Friday) at 10 mg/kg by oral gavage, and compound 79 were given three times a week (tiw, Monday, Wednesday and Friday) at 2.5 mg/kg by oral gavage. Tumor volume and body weight were measured every other day. Mice were sacrificed on day 21, and tumor and terminal body weight were recorded. The relative tumor volume, percent treatment/control values and tumor growth inhibition were calculated and statistics was performed.

[3] = system: BxPC-3 cells (pancreatic cancer); assay: Cancer cell proliferation assay, BxPC-3; type: cell-based; details: Homo sapiens, BXPC-3, 72 h; three days incubation, absorbance 570 nm; read-out: IC50 (μM) BxPC-3
Method: as §1

[4] = simulated gastric fluid, HCl solution of pH 1.2, shaken three days, read-out: Solubility, HCl solution of pH 1.2
[5] = water, shaken three days, read-out: Solubility, Water

T1 sequence (O14980 whole entry): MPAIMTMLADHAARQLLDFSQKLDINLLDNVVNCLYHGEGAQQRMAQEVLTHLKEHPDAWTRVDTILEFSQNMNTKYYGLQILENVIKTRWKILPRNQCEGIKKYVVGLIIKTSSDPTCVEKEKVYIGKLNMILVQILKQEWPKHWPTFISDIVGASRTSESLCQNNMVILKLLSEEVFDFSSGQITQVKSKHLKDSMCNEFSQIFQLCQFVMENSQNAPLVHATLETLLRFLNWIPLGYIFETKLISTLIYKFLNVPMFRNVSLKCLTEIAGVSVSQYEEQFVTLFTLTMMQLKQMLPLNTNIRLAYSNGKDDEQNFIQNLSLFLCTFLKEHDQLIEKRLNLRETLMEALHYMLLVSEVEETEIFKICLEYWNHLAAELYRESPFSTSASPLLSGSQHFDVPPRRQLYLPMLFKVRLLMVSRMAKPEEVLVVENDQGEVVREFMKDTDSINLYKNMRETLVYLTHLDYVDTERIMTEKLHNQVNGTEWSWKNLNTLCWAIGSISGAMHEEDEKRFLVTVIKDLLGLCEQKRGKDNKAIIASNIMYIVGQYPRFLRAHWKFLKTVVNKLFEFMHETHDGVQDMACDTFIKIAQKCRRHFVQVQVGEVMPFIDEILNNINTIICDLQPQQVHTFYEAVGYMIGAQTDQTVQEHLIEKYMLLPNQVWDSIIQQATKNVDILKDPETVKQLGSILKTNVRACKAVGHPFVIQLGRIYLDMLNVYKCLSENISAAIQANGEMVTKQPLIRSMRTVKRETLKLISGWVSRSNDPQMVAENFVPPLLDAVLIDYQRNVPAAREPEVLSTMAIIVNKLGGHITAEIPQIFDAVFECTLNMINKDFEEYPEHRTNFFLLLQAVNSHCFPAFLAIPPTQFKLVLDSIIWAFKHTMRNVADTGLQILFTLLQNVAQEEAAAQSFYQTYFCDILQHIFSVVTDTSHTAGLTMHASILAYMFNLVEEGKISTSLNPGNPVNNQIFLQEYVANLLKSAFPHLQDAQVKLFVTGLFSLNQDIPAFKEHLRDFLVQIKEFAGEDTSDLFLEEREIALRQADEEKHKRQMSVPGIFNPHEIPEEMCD

With `COC1=CC(=O)N(NC(=O)/C=C\n2cnc(-c3cc(C(F)(F)F)cc(C(F)(F)F)c3)n2)C1` [Compound 79, (Z)-3-(3-(3,5-bis(trifluoromethyl)phenyl)-1H-1,2,4-triazol-1-yl)-N-(4-methoxy-2-oxo-2,5-dihydro-1H-pyrrol-1-yl)acrylamide] the solubility at 3 days (Aqueous solubility assay; [4]) was 8.54 µg/mL (≈ 18.5 µM), the solubility at 3 days (Aqueous solubility assay; [5]) was 7.89 µg/mL (≈ 17.1 µM) and the AUC(0-t) [1] was 3410 ng·h/mL. For the same compound, the Cmax [1] was 440 ng/mL, the MRT [1] was 5.89 h and the Tmax [1] was 1 h. The half-life [1] was 3.42 h, the IC50 [2] was 0.126 µM and the IC50 (CRM1) was less than 1000 nM. The “Tumor volume D1” value (BxPC-3 xenografts) was 66.87 ± 9.13 mm^3, the “average body weight D1” value (BxPC-3 xenografts) was 20.15 g and the “TGI (tumor growth inhibition)” value (BxPC-3 xenografts) was 84.37%. For the same compound, the “Tumor volume D21” value (BxPC-3 xenografts) was 126.90 ± 17.73 mm^3, the “average body weight D21” value (BxPC-3 xenografts) was 21.30 g and the “RTV (relative tumor volume, Vt/V0)” value (BxPC-3 xenografts) was 1.63*. The “anti-tumor growth activity in BxPC-3 xenograft model (in words)” value (BxPC-3 xenografts) was “significant anti-tumor growth activity; also recorded: more potent in inhibiting tumor growth”, the T/C (BxPC-3 xenografts) was 49.20% and the IC50 [3] was 0.204 µM.

`O=C(/C=C\n1cnc(-c2cc(C(F)(F)F)cc(C(F)(F)F)c2)n1)NN1CCOCC1=O` [Compound 38, (Z)-3-(3-(3,5-bis(trifluoromethyl)phenyl)-1H-1,2,4-triazol-1-yl)-N-(3-oxomorpholino)acrylamide] gave a solubility at 3 days (Aqueous solubility assay; [4]) of 71.4 µg/mL (≈ 159 µM), a solubility at 3 days (Aqueous solubility assay; [5]) of 50.4 µg/mL (≈ 112 µM) and an AUC(0-t) [1] of 4390 ng·h/mL. For the same compound, the Cmax [1] was 536 ng/mL, the MRT [1] was 6.67 h and the Tmax [1] was 0.5 h. For the same compound, the half-life [1] was 4.53 h, the IC50 [2] was 0.654 µM and the IC50 (CRM1) was less than 1000 nM. For the same compound, the “effect on body weight (in words)” value (BxPC-3 xenografts; 10 mg/kg, compared to KPT-330) was “less effect on body weight”, the “Tumor volume D1” value (BxPC-3 xenografts) was 65.89 ± 12.63 mm^3 and the “average body weight D1” value (BxPC-3 xenografts) was 19.02 g. For the same compound, the “TGI (tumor growth inhibition)” value (BxPC-3 xenografts) was 78.20%, the “Tumor volume D21” value (BxPC-3 xenografts) was 149.62 ± 23.20 mm^3 and the “average body weight D21” value (BxPC-3 xenografts) was 20.80 g. For the same compound, the “RTV (relative tumor volume, Vt/V0)” value (BxPC-3 xenografts) was 2.45*, the “anti-tumor growth activity in BxPC-3 xenograft model (in words)” value (BxPC-3 xenografts) was “greater efficacy” and the T/C (BxPC-3 xenografts) was 36.02%. For the same compound, the IC50 [3] was 0.283 µM.
